Laboratory results reported in the supplement of paper PMC10307832.

What was measured:
Assay in all cases: relative viability (nuclei count vs DMSO), 5 days (fraction); higher = more cells survive
[1] = compound: CC1=C(CC(=O)O)c2cc(F)ccc2/C1=C\c1ccc([S+](C)[O-])cc1 [Sulindac] + O=C(CCCCCCC(=O)Nc1ccccc1)NO [Vorinostat] (partner 1 µM)
Method in brief: (§1)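 Lung cancer cell lines, seeded in 1536-well plates, were treated the following day by pin tool with a single drug or with five library-drug doses (not always all listed) in √10 steps on top of a fixed anchor-drug dose. Cells were fixed and nuclei stained in one step after 5 days, and nuclei were counted. Relative viability is the nuclei count for treated wells divided by that for vehicle wells, reported as medians of duplicate plates.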

[2] = compound: O=c1[nH]cc(F)c(=O)[nH]1 [5-Fluorouracil] + Cc1cc(Nc2cc(N3CCN(C)CC3)nc(Sc3ccc(NC(=O)C4CC4)cc3)n2)n[nH]1 [Tozasertib] (partner 0.1 µM)
Method in brief: as §1

[3] = compound: O=c1[nH]cc(F)c(=O)[nH]1 [5-Fluorouracil] + O=C(c1cc(Cc2n[nH]c(=O)c3ccccc23)ccc1F)N1CCN(C(=O)C2CC2)CC1 [Olaparib] (partner 8 µM)
Method in brief: as §1

[4] = compound: CC1=C(CC(=O)O)c2cc(F)ccc2/C1=C\c1ccc([S+](C)[O-])cc1 [Sulindac] + Nc1nc2[nH]cc(CCc3ccc(C(=O)N[C@@H](CCC(=O)O)C(=O)O)cc3)c2c(=O)[nH]1 [Pemetrexed] (partner 0.2 µM)
Method in brief: as §1

| Cell Line | relative viability ([1]; first compound 0.08 µM) | relative viability ([1]; first compound 0.253 µM) | relative viability ([1]; first compound 0.8 µM) | relative viability ([1]; first compound 2.53 µM) | relative viability ([1]; first compound 8 µM) | relative viability ([2]; first compound 0.02 µM) | relative viability ([2]; first compound 0.2 µM) | relative viability ([2]; first compound 0.6325 µM) | relative viability ([2]; first compound 2 µM) | relative viability ([3]; first compound 0.02 µM) | relative viability ([3]; first compound 0.2 µM) | relative viability ([3]; first compound 0.6325 µM) | relative viability ([3]; first compound 2 µM) | relative viability ([4]; first compound 0.08 µM) | relative viability ([4]; first compound 0.253 µM) | relative viability ([4]; first compound 0.8 µM) | relative viability ([4]; first compound 2.53 µM) | relative viability ([4]; first compound 8 µM) |
| --- | --- | --- | --- | --- | --- | --- | --- | --- | --- | --- | --- | --- | --- | --- | --- | --- | --- | --- |
| NCI-H1734 | 0.844 | 0.826 | 0.664 | 0.78 | 1.05 | 0.249 | 0.261 | 0.241 | 0.237 | 0.586 | 0.667 | 0.53 | 0.393 | 0.477 | 0.421 | 0.439 | 0.44 | 0.452 |
| NCI-H441 | 1.02 | 0.936 | 0.599 | 0.782 | 0.981 | 0.701 | 0.468 | 0.372 | 0.343 | 0.514 | 0.438 | 0.292 | 0.269 | 0.251 | 0.255 | 0.286 | 0.244 | 0.253 |
| NCI-H838 | 0.736 | 0.777 | 0.762 | 0.726 | 0.713 | 0.267 | 0.251 | 0.243 | 0.183 | 0.801 | 0.691 | 0.45 | 0.296 | 0.248 | 0.255 | 0.233 | 0.24 | 0.258 |
| NCI-H23 | 0.577 | 0.684 | 0.607 | 0.38 | 0.702 | 0.544 | 0.327 | 0.318 | 0.189 | 0.317 | 0.373 | 0.256 | 0.229 | 0.768 | 0.683 | 0.237 | 0.7 | 0.692 |
| NCI-H1395 | 0.662 | 0.832 | 0.641 | 0.682 | 0.959 | 0.652 | 0.837 | 0.737 | 0.8 | 0.481 | 0.445 | 0.557 | 0.479 | 0.931 | 1.02 | 0.828 | 0.855 | 1.12 |
| NCI-H647 | 0.604 | 0.952 | 0.409 | 0.628 | 0.549 | 0.146 | 0.415 | 0.232 | 0.243 | 0.577 | 0.501 | 0.434 | 0.407 | 0.212 | 0.165 | 0.169 | 0.182 | 0.208 |
| NCI-H520 | 0.897 | 0.914 | 0.686 | 0.682 | 0.778 | – | 0.484 | 0.438 | 0.329 | 0.294 | 0.366 | 0.33 | 0.258 | 0.893 | 0.613 | 0.488 | 0.642 | 0.813 |
